From BindingDB's records for doi:10.1021/jm050513m (The University of Texas At Houston, 2005) come the findings set out here.

Square brackets hold non-standard residues; d marks the D form. Peptide text beside a SMILES is read from it. * marks the point of attachment. ξ: configuration not given here. pY = N[C@@H](Cc1ccc(OP(=O)(O)O)cc1)C(=O)O; Dip = N[C@H](C(=O)O)C(c1ccccc1)c1ccccc1; NH(1S-phenylethyl) = C[C@H](N*)c1ccccc1; Hydrocinnamoyl = O=C(CCc1ccccc1)*; NMeThr(3ξ) = CN[C@H](C(=O)O)C(C)O; Cha = N[C@@H](CC1CCCCC1)C(=O)O; Ile(3ξ) = CCC(C)[C@H](N)C(=O)O; NMeL = CN[C@@H](CC(C)C)C(=O)O; Thr(3ξ) = CC(O)[C@H](N)C(=O)O; αMeP = C[C@@]1(C(=O)O)CCCN1; Pip = O=C(O)[C@@H]1CCCCN1; Nle = CCCC[C@H](N)C(=O)O; Piperidide = C1CCN(*)CC1; Aze = O=C(O)[C@@H]1CCN1; Propionyl = CCC(=O)*; Bz = O=C(c1ccccc1)*

For this experiment, the target named is Signal transducer and activator of transcription 3 (Mus musculus, UniProt P42227). Description: Fluorescence Polarization Assay. The procedure:
Fluorescence polarization (FP) binding assay is utilizing the intrinsic property of the fluorescent probe, which will have low polarization value when free in solution. On binding to a target, the polarization of the probe will increase. Reaction mixtures of full length STAT3 alpha and the probe were placed in wells of a 96-well microtiter plate. The test peptide solution was added to each well. Fluorescence polarization was then read in a Tecan Polarian plate reader. The IC50 values were obtained from nonlinear regression analysis in the one-site competition mode. Peptides were assayed three times using three separate Stat3-probe preparations. IC50 values are reported as the mean of three IC50 values +/- the standard deviation.
(In fluorescence polarisation assays a small probe gives low polarisation when free and higher when bound to something large.)

Sequence of Signal transducer and activator of transcription 3 (P42227 whole entry): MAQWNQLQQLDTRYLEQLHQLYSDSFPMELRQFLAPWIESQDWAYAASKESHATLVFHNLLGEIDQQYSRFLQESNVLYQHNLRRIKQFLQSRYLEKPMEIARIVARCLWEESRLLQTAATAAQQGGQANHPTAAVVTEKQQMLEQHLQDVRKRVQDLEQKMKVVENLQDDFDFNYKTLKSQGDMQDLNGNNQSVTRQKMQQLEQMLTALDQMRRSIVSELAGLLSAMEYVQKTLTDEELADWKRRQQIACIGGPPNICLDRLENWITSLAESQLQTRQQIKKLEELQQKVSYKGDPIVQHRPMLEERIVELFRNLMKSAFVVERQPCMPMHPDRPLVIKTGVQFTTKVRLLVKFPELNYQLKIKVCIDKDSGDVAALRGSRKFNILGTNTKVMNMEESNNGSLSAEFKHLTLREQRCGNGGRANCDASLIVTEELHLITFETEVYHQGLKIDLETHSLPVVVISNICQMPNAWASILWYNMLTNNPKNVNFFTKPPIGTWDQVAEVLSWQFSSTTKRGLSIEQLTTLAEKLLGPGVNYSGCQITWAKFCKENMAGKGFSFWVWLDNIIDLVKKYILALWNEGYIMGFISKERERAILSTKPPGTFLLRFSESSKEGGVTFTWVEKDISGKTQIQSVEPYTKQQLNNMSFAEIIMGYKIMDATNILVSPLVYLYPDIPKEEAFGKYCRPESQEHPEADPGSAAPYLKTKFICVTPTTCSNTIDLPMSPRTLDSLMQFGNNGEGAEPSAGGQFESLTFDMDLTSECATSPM

In the case of `CCC(C)[C@H](NC(=O)[C@H](Cc1ccc(OP(=O)(O)O)cc1)NC(C)=O)C(=O)N1CCC[C@H]1C(=O)N[C@@H](CCC(N)=O)C(=O)N[C@H](C(N)=O)C(C)O` (stereo partly drawn) [4-[(2S)-2-{[(2S)-1-[(2S)-2-{[(1S)-3-carbamoyl-1-{[(1S)-1-carbamoyl-2-hydroxypropyl]carbamoyl}propyl]carbamoyl}pyrrolidin-1-yl]-3-methyl-1-oxopentan-2-yl]carbamoyl}-2-acetamidoethyl]phenoxyphosphonic acid] (Ac-[pY][Ile(3ξ)]PQ[Thr(3ξ)]-NH2), it took 1070 nM to reach half-maximal inhibition (pH 7.5, 22 °C) (IC50).

Consider `CC(=O)N[C@@H](Cc1ccc(OP(=O)(O)O)cc1)C(=O)N[C@@H](CC(C)C)C(=O)N1CCC[C@H]1C(=O)N[C@@H](CCC(N)=O)C(=O)N[C@@H](C)c1ccccc1` [4-[(2S)-2-{[(2S)-1-[(2S)-2-{[(1S)-3-carbamoyl-1-{[(1S)-1-phenylethyl]carbamoyl}propyl]carbamoyl}pyrrolidin-1-yl]-4-methyl-1-oxopentan-2-yl]carbamoyl}-2-acetamidoethyl]phenoxyphosphonic acid] (Ac-[pY]LPQ-{NH(1S-phenylethyl)}), for which half-maximal inhibition (IC50) was put at 596 nM. Still for that read-out and setting: as for `CC(=O)N[C@@H](Cc1ccc(OP(=O)(O)O)cc1)C(=O)N[C@@H](CC(C)C)C(=O)N1CCC[C@H]1C(=O)N[C@@H](CCC(N)=O)C(=O)N(C)[C@H](C(N)=O)C(C)O` (stereo partly drawn) [4-[(2S)-2-{[(2S)-1-[(2S)-2-{[(1S)-3-carbamoyl-1-{[(1S,2S)-1-carbamoyl-2-hydroxypropyl](methyl)carbamoyl}propyl]carbamoyl}pyrrolidin-1-yl]-4-methyl-1-oxopentan-2-yl]carbamoyl}-2-acetamidoethyl]phenoxyphosphonic acid] (Ac-[pY]LPQ[NMeThr(3ξ)]-NH2), the figure is 1220 nM. Consider `CC(=O)N[C@@H](Cc1ccc(OP(=O)(O)O)cc1)C(=O)N[C@@H](CC(C)C)C(=O)N1CCC[C@@]1(C)C(=O)N[C@@H](CCC(N)=O)C(=O)N[C@H](C(N)=O)C(C)O` (stereo partly drawn) [4-[(2S)-2-{[(2S)-1-[(2S)-2-{[(1S)-3-carbamoyl-1-{[(1S,2S)-1-carbamoyl-2-hydroxypropyl]carbamoyl}propyl]carbamoyl}-2-methylpyrrolidin-1-yl]-4-methyl-1-oxopentan-2-yl]carbamoyl}-2-acetamidoethyl]phenoxyphosphonic acid] (Ac-[pY]L[αMeP]Q[Thr(3ξ)]-NH2), for which, under “pH 7.5, 22 °C”, the IC50 – broadly, the midpoint of a concentration-inhibition curve – is 1870 nM. Still for that read-out and setting: as for `CC(=O)N[C@@H](Cc1ccc(OP(=O)(O)O)cc1)C(=O)N[C@@H](CC(C)C)C(=O)N1CC[C@H]1C(=O)N[C@@H](CCC(N)=O)C(=O)N[C@H](C(N)=O)C(C)O` (stereo partly drawn) [4-[(2S)-2-{[(2S)-1-[(2S)-2-{[(1S)-3-carbamoyl-1-{[(1S,2S)-1-carbamoyl-2-hydroxypropyl]carbamoyl}propyl]carbamoyl}azetidin-1-yl]-4-methyl-1-oxopentan-2-yl]carbamoyl}-2-acetamidoethyl]phenoxyphosphonic acid] (Ac-[pY]L[Aze]Q[Thr(3ξ)]-NH2), the figure is 1660 nM. Still for that read-out and setting: in the case of `CC(=O)N[C@@H](Cc1ccc(OP(=O)(O)O)cc1)C(=O)N[C@@H](CC(C)C)C(=O)N1CCCC[C@H]1C(=O)N[C@@H](CCC(N)=O)C(=O)N[C@H](C(N)=O)C(C)O` (stereo partly drawn) [4-[(2S)-2-{[(2S)-1-[(2S)-2-{[(1S)-3-carbamoyl-1-{[(1S,2S)-1-carbamoyl-2-hydroxypropyl]carbamoyl}propyl]carbamoyl}piperidin-1-yl]-4-methyl-1-oxopentan-2-yl]carbamoyl}-2-acetamidoethyl]phenoxyphosphonic acid] (Ac-[pY]L[Pip]Q[Thr(3ξ)]-NH2) it was 1240 nM; in that of `CC(=O)N[C@@H](Cc1ccc(OP(=O)(O)O)cc1)C(=O)N[C@H](C(=O)N1CCC[C@H]1C(=O)N[C@@H](CCC(N)=O)C(=O)N[C@H](C(N)=O)C(C)O)C(c1ccccc1)c1ccccc1` (stereo partly drawn) [4-[(2S)-2-{[(2S)-1-[(2S)-2-{[(1S)-3-carbamoyl-1-{[(1S,2S)-1-carbamoyl-2-hydroxypropyl]carbamoyl}propyl]carbamoyl}pyrrolidin-1-yl]-1-oxo-3,3-diphenylpropan-2-yl]carbamoyl}-2-acetamidoethyl]phenoxyphosphonic acid] (Ac-[pY][Dip]PQ[Thr(3ξ)]-NH2), above 100000 nM.

In turn, `CC(=O)N[C@@H](Cc1ccc(OP(=O)(O)O)cc1)C(=O)N[C@@H](Cc1ccccc1)C(=O)N1CCC[C@H]1C(=O)N[C@@H](CCC(N)=O)C(=O)N[C@H](C(N)=O)C(C)O` (stereo partly drawn) [4-[(2S)-2-{[(2S)-1-[(2S)-2-{[(1S)-3-carbamoyl-1-{[(1S,2S)-1-carbamoyl-2-hydroxypropyl]carbamoyl}propyl]carbamoyl}pyrrolidin-1-yl]-1-oxo-3-phenylpropan-2-yl]carbamoyl}-2-acetamidoethyl]phenoxyphosphonic acid] (Ac-[pY]FPQ[Thr(3ξ)]-NH2) registered an IC50 (pH 7.5, 22 °C) of 1890 nM. On the same count and under the same terms, in the case of `CCCC[C@H](NC(=O)[C@H](Cc1ccc(OP(=O)(O)O)cc1)NC(C)=O)C(=O)N1CCC[C@H]1C(=O)N[C@@H](CCC(N)=O)C(=O)N[C@H](C(N)=O)C(C)O` (stereo partly drawn) [4-[(2S)-2-{[(2S)-1-[(2S)-2-{[(1S)-3-carbamoyl-1-{[(1S,2S)-1-carbamoyl-2-hydroxypropyl]carbamoyl}propyl]carbamoyl}pyrrolidin-1-yl]-1-oxohexan-2-yl]carbamoyl}-2-acetamidoethyl]phenoxyphosphonic acid] (Ac-[pY][Nle]PQ[Thr(3ξ)]-NH2) it was 717 nM. For the setting “pH 7.5, 22 °C”, `CC(=O)N[C@@H](Cc1ccc(OP(=O)(O)O)cc1)C(=O)N[C@@H](CC1CCCCC1)C(=O)N1CCC[C@H]1C(=O)N[C@@H](CCC(N)=O)C(=O)N[C@H](C(N)=O)C(C)O` (stereo partly drawn) [4-[(2S)-2-{[(2S)-1-[(2S)-2-{[(1S)-3-carbamoyl-1-{[(1S,2S)-1-carbamoyl-2-hydroxypropyl]carbamoyl}propyl]carbamoyl}pyrrolidin-1-yl]-3-cyclohexyl-1-oxopropan-2-yl]carbamoyl}-2-acetamidoethyl]phenoxyphosphonic acid] (Ac-[pY][Cha]PQ[Thr(3ξ)]-NH2) had an IC50 of 910 nM.

Take `CC(=O)N[C@@H](Cc1ccc(OP(=O)(O)O)cc1)C(=O)N[C@H](C(=O)N1CCC[C@H]1C(=O)N[C@@H](CCC(N)=O)C(=O)N[C@H](C(N)=O)C(C)O)C(C)C` (stereo partly drawn) [4-[(2S)-2-{[(2S)-1-[(2S)-2-{[(1S)-3-carbamoyl-1-{[(1S,2S)-1-carbamoyl-2-hydroxypropyl]carbamoyl}propyl]carbamoyl}pyrrolidin-1-yl]-3-methyl-1-oxobutan-2-yl]carbamoyl}-2-acetamidoethyl]phenoxyphosphonic acid] (Ac-[pY]VPQ[Thr(3ξ)]-NH2): the IC50 (pH 7.5, 22 °C) was determined as 1540 nM. Still for that read-out and setting: in the case of `CC(=O)N[C@@H](Cc1ccc(OP(=O)(O)O)cc1)C(=O)N(C)[C@@H](CC(C)C)C(=O)N1CCC[C@H]1C(=O)N[C@@H](CCC(N)=O)C(=O)N[C@H](C(N)=O)C(C)O` (stereo partly drawn) [4-[(2S)-2-{[(2S)-1-[(2S)-2-{[(1S)-3-carbamoyl-1-{[(1S,2S)-1-carbamoyl-2-hydroxypropyl]carbamoyl}propyl]carbamoyl}pyrrolidin-1-yl]-4-methyl-1-oxopentan-2-yl](methyl)carbamoyl}-2-acetamidoethyl]phenoxyphosphonic acid] (Ac-[pY][NMeL]PQ[Thr(3ξ)]-NH2) it was above 100000 nM; in that of `CC(C)C[C@H](NC(=O)[C@H](Cc1ccc(OP(=O)(O)O)cc1)NC(=O)CCc1ccccc1)C(=O)N1CCC[C@H]1C(=O)N[C@@H](CCC(N)=O)C(=O)N[C@H](C(N)=O)C(C)O` (stereo partly drawn) [4-[(2S)-2-{[(2S)-1-[(2S)-2-{[(1S)-3-carbamoyl-1-{[(1S,2S)-1-carbamoyl-2-hydroxypropyl]carbamoyl}propyl]carbamoyl}pyrrolidin-1-yl]-4-methyl-1-oxopentan-2-yl]carbamoyl}-2-(3-phenylpropanamido)ethyl]phenoxyphosphonic acid] (Hydrocinnamoyl-[pY]LPQ[Thr(3ξ)]-NH2), 276 nM. Same read-out and setting: in the case of `CC(C)C[C@H](NC(=O)[C@H](Cc1ccc(OP(=O)(O)O)cc1)NC(=O)c1ccccc1)C(=O)N1CCC[C@H]1C(=O)N[C@@H](CCC(N)=O)C(=O)N[C@H](C(N)=O)C(C)O` (stereo partly drawn) [4-[(2S)-2-{[(2S)-1-[(2S)-2-{[(1S)-3-carbamoyl-1-{[(1S,2S)-1-carbamoyl-2-hydroxypropyl]carbamoyl}propyl]carbamoyl}pyrrolidin-1-yl]-4-methyl-1-oxopentan-2-yl]carbamoyl}-2-(phenylformamido)ethyl]phenoxyphosphonic acid] (Bz-[pY]LPQ[Thr(3ξ)]-NH2) it was 814 nM; in that of `CC(=O)N[C@@H](Cc1ccc(OP(=O)(O)O)cc1)C(=O)N[C@@H](CC(C)C)C(=O)N1CCC[C@H]1C(=O)N[C@@H](CCC(N)=O)C(=O)N[C@H](C(N)=O)C(C)O` (stereo partly drawn) [4-[(2S)-2-{[(2S)-1-[(2S)-2-{[(1S)-3-carbamoyl-1-{[(1S,2S)-1-carbamoyl-2-hydroxypropyl]carbamoyl}propyl]carbamoyl}pyrrolidin-1-yl]-4-methyl-1-oxopentan-2-yl]carbamoyl}-2-acetamidoethyl]phenoxyphosphonic acid], 739 nM; in that of `CCC(=O)N[C@@H](Cc1ccc(OP(=O)(O)O)cc1)C(=O)N[C@@H](CC(C)C)C(=O)N1CCC[C@H]1C(=O)N[C@@H](CCC(N)=O)C(=O)N[C@H](C(N)=O)C(C)O` (stereo partly drawn) [4-[(2S)-2-{[(2S)-1-[(2S)-2-{[(1S)-3-carbamoyl-1-{[(1S,2S)-1-carbamoyl-2-hydroxypropyl]carbamoyl}propyl]carbamoyl}pyrrolidin-1-yl]-4-methyl-1-oxopentan-2-yl]carbamoyl}-2-propanamidoethyl]phenoxyphosphonic acid] (Propionyl-[pY]LPQ[Thr(3ξ)]-NH2), 497 nM. Turning to `CC(=O)N[C@@H](Cc1ccc(OP(=O)(O)O)cc1)C(=O)N[C@@H](CC(C)C)C(=O)N1CCC[C@H]1C(=O)N[C@@H](CCC(N)=O)C(=O)N1CCCCC1` [4-[(2S)-2-{[(2S)-1-[(2S)-2-{[(2S)-4-carbamoyl-1-oxo-1-(piperidin-1-yl)butan-2-yl]carbamoyl}pyrrolidin-1-yl]-4-methyl-1-oxopentan-2-yl]carbamoyl}-2-acetamidoethyl]phenoxyphosphonic acid] (Ac-[pY]LPQ-Piperidide), the midpoint of inhibition, the IC50, lay at 7000 nM.
